Consider 41 compounds from ChEMBL document CHEMBL4130506, “Design, synthesis and biological evaluation of N-(4-alkoxy-3-cyanophenyl)isonicotinamide/nicotinamide derivatives as novel xanthine oxidase inhibitors” (Eur J Med Chem, 2017).

Some results are limits rather than exact numbers.

The target of data set [1] is T1, Xanthine dehydrogenase/oxidase (Bos taurus, UniProt P80457). Kind of data set: Inhibition of bovine xanthine oxidase assessed as reduction in uric acid formation using xanthine as substrate preincubated for 10 mins followed by substrate addition by UV spectrophotometric method.
The target of data set [2] is T1, Xanthine dehydrogenase/oxidase. Kind of data set: Inhibition of bovine xanthine oxidase assessed as reduction in uric acid formation at 50 uM using xanthine as substrate preincubated for 10 mins followed by substrate addition by UV spectrophotometric method. Particulars: cattle; call rule not given here.
Data set [3] shares this target. Kind of data set: Mixed inhibition of bovine xanthine oxidase assessed as reduction in uric acid formation up to 0.6 uM using xanthine as substrate preincubated for 10 mins followed by substrate addition by Lineweaver-Burk plot analysis. Particulars: cattle.
Data set [4] has the same target. Kind of data set: Potency index, ratio of allopurinol IC50 to test compound IC50 for bovine xanthine oxidase. Particulars: cattle.

T1 sequence (P80457 whole entry): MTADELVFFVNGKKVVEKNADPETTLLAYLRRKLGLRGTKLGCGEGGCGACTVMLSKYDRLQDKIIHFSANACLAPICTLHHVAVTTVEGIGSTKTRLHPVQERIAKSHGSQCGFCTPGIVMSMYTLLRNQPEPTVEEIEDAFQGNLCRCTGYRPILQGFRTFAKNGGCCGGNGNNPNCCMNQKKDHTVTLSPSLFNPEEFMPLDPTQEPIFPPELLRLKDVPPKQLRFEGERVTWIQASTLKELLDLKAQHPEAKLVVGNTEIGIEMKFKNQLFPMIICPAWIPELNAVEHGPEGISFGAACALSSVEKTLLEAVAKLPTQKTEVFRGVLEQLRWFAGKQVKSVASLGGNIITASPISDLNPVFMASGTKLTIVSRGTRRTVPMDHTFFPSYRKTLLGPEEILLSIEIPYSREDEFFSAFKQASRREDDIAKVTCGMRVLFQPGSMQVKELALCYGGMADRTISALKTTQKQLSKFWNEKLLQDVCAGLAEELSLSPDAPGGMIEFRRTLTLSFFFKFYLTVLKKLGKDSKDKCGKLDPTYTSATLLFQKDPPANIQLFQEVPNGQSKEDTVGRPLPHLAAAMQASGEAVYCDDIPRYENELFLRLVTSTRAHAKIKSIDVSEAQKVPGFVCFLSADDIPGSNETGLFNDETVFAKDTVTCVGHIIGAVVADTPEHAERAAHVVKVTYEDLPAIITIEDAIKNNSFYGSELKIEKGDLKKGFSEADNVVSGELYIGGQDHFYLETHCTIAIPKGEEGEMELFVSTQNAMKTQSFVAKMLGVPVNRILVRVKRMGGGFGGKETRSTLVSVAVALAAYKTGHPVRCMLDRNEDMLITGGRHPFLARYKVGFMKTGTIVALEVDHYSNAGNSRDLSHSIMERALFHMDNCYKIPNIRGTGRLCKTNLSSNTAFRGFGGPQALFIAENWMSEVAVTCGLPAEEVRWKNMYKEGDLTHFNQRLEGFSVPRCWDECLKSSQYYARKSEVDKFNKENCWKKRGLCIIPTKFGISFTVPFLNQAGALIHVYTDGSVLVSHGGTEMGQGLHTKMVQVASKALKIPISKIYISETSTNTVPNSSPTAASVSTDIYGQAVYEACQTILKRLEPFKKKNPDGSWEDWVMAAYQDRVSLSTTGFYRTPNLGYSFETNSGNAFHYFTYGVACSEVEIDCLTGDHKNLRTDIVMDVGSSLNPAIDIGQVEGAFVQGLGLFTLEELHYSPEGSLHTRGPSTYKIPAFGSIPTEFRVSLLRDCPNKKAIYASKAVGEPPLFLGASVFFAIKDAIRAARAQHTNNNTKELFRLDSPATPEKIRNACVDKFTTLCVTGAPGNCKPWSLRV

Take `N#Cc1ccc(COc2ccc(NC(=O)c3ccncc3)cc2C#N)cc1`: in data set [1], the IC50 (usually the concentration at which inhibition is half-maximal) is 2300 nM.

`CCCOc1ccc(NC(=O)c2cccnc2)cc1C#N`: the inhibition (in general, the relative decrease from the control value, in per cent) at 50 µM in data set [2] is under 60%.

For `CCCCCCCOc1ccc(NC(=O)c2ccncc2)cc1C#N`, the half-inhibitory concentration (IC50) in data set [1] was found to be 5000 nM.

For `CC(C)CCOc1ccc(NC(=O)c2cccnc2)cc1C#N`, the IC50 in data set [1] turned out to be 35000 nM.

For the compound `N#Cc1cc(NC(=O)c2ccccc2)ccc1OCc1ccccc1`, the inhibition at 50 µM in data set [2] is under 60%.

For the compound `N#Cc1ccccc1COc1ccc(NC(=O)c2ccncc2)cc1C#N`, the “inhibition (INH)” value in data set [3] is “Active”. In addition, in data set [1], the concentration for half-maximal inhibition (IC50) came to 300 nM. In data set [4], the “Ratio IC50” value stood at 28.3.

Regarding `N#Cc1cc(NC(=O)c2ccncc2)ccc1OC1CCCC1`, in data set [1], the IC50 was determined as 5700 nM.

`CC(C)Oc1ccc(NC(=O)c2cccnc2)cc1C#N`: the inhibition at 50 µM in data set [2] is under 60%.

As for `CCCCOc1ccc(NC(=O)c2ccccn2)cc1C#N`, the inhibition at 50 µM in data set [2] was under 60%.

On to `CCC(C)Oc1ccc(NC(=O)c2ccncc2)cc1C#N` (centres undefined), for which the half-inhibitory concentration (IC50) in data set [1] was found to be 6100 nM.

In the case of `CCCCCOc1ccc(NC(=O)c2cccnc2)cc1C#N`, the inhibition at 50 µM in data set [2] was under 60%.

Turning to `COc1ccccc1COc1ccc(NC(=O)c2ccncc2)cc1C#N`, the IC50 in data set [1] was 1800 nM.

With `N#Cc1cc(NC(=O)c2ccncc2)ccc1OCc1ccccc1`, the IC50 in data set [1] worked out at 900 nM.

For the compound `N#Cc1cc(NC(=O)c2cccnc2)ccc1OCc1ccccc1`, the half-inhibitory concentration (IC50) in data set [1] came out at 32800 nM.

As for `CCCCCCOc1ccc(NC(=O)c2ccncc2)cc1C#N`, the IC50 in data set [1] is 2700 nM.

In the case of `CC(C)CCOc1ccc(NC(=O)c2ccncc2)cc1C#N`, the IC50 in data set [1] came out at 2000 nM.

For the compound `CCCCCCCOc1ccc(NC(=O)c2cccnc2)cc1C#N`, the inhibition at 50 µM in data set [2] was under 60%.

As to `N#Cc1cc(NC(=O)c2cccnc2)ccc1OCc1ccc(Cl)cc1`, the inhibition at 50 µM in data set [2] was under 60%.

`N#Cc1cccc(COc2ccc(NC(=O)c3ccncc3)cc2C#N)c1`: the IC50 in data set [1] came to 2000 nM.

As for `N#Cc1cc(NC(=O)c2cccnc2)ccc1OC1CCCC1`, in data set [2], the inhibition at 50 µM is under 60%.

`N#Cc1cc(NC(=O)c2ccccn2)ccc1OCc1ccc(Cl)cc1`: the inhibition at 50 µM in data set [2] was under 60%.

With `CCCCOc1ccc(NC(=O)c2ccncc2)cc1C#N`, the IC50 in data set [1] worked out at 2300 nM.

For `CCC(C)Oc1ccc(NC(=O)c2cccnc2)cc1C#N` (centres undefined), the inhibition at 50 µM in data set [2] is under 60%.

For the compound `N#Cc1cc(NC(=O)c2ccccn2)ccc1OCc1ccccc1`, the IC50 in data set [1] came out at 22600 nM.

For the compound `COCCOc1ccc(NC(=O)c2ccncc2)cc1C#N`, the inhibition at 50 µM in data set [2] was under 60%.

Consider `CCCCCCCCOc1ccc(NC(=O)c2ccncc2)cc1C#N`, for which the IC50 in data set [1] was determined as 19200 nM.

Take `CCCCOc1ccc(NC(=O)c2cccnc2)cc1C#N`: the inhibition at 50 µM in data set [2] is under 60%.

Take `COc1ccc(COc2ccc(NC(=O)c3ccncc3)cc2C#N)cc1`: the half-inhibitory concentration (IC50) in data set [1] was 600 nM.

For the compound `CCCCCCCCOc1ccc(NC(=O)c2cccnc2)cc1C#N`, the inhibition at 50 µM in data set [2] is under 60%.

Take `CC(C)COc1ccc(NC(=O)c2ccccn2)cc1C#N`: the inhibition at 50 µM in data set [2] is under 60%.

With `N#Cc1cc(NC(=O)c2ccncc2)ccc1OCc1ccc(Cl)cc1`, the 50% inhibitory concentration (IC50) in data set [1] worked out at 800 nM.

Turning to `CCCCCOc1ccc(NC(=O)c2ccncc2)cc1C#N`, in data set [1], the IC50 came out at 3000 nM.

In the case of `CC(C)Oc1ccc(NC(=O)c2ccncc2)cc1C#N`, in data set [1], the 50% inhibitory concentration (IC50) was found to be 9500 nM.

Regarding `CCCCCCOc1ccc(NC(=O)c2cccnc2)cc1C#N`, the inhibition at 50 µM in data set [2] is under 60%.

Take `N#Cc1ccc(COc2ccc(NC(=O)c3cccnc3)cc2C#N)cc1`: the inhibition at 50 µM in data set [2] is under 60%.

As for `COCCOc1ccc(NC(=O)c2cccnc2)cc1C#N`, in data set [2], the inhibition at 50 µM was under 60%.

As to `CCCOc1ccc(NC(=O)c2ccncc2)cc1C#N`, in data set [1], the IC50 came to 3900 nM.

With `CC(C)COc1ccc(NC(=O)c2ccncc2)cc1C#N`, in data set [1], the half-inhibitory concentration (IC50) came out at 1600 nM. Further, in data set [4], the “Ratio IC50” value was found to be 5.3.

As to `CC(C)COc1ccc(NC(=O)c2cccnc2)cc1C#N`, the inhibition at 50 µM in data set [2] was under 60%.

For the compound `CC(C)CCOc1ccc(NC(=O)c2ccccn2)cc1C#N`, the inhibition at 50 µM in data set [2] is under 60%.

For the compound `N#Cc1cc(-c2n[nH]c(-c3ccncc3)n2)ccn1` [TOPIROXOSTAT], the IC50 in data set [1] was found to be 15 nM.
